Data set [1] concerns the target T1, human calcium-sensing receptor (CaSR) (Homo sapiens, UniProt P41180).
T1 construct: expressed in transfected cells; host or cells: HEK 293T cells, transiently transfected (lipofectamine 2000); in some cases HEK293 cells stably transfected
T1 sequence (P41180 20-1078): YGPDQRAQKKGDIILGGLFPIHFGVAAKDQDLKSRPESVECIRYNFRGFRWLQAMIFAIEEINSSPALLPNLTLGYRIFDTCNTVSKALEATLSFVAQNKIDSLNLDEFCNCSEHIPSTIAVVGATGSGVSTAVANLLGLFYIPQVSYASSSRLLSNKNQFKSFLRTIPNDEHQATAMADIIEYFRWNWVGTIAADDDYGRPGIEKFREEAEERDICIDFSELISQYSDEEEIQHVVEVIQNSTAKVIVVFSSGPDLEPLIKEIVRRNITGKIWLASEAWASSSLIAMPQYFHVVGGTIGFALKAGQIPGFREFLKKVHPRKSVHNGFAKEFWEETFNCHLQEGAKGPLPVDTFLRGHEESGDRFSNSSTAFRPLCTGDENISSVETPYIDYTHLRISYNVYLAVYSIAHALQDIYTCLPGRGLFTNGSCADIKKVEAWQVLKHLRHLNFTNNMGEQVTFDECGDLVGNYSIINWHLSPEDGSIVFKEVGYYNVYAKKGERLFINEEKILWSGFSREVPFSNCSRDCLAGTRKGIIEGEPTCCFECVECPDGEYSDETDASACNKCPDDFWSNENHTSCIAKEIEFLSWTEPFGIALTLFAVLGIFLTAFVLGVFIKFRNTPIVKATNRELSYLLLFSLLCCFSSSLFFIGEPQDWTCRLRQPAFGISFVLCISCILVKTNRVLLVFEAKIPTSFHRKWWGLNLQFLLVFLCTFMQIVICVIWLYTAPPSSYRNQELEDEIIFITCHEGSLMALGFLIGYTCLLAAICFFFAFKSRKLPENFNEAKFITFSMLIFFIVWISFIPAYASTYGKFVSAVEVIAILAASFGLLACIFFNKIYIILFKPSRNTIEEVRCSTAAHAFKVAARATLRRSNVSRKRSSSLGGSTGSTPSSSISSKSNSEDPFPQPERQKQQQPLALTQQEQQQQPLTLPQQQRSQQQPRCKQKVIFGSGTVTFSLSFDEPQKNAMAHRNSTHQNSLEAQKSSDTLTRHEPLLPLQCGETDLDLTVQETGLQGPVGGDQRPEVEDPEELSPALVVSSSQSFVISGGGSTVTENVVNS
Briefly: In vitro cell assay in HEK-293 expressing the human calcium-sensing receptor (IP1 production). The following applies: for EC50: Table 5, IP1 production in HEK293 cells expressing human CaSR, eight concentrations in duplicate, read-out: EC50 in CaSR in vitro assay. The data set is classed as cell-based. Here is the method:
The activity of a variety of peptides and conjugates was tested against the human CaSR. These studies were conducted by measuring IP1 production in HEK293 cells that express the human CaSR. Each peptide was tested in eight different concentrations, in duplicates, to establish a dose response curve. Curve fitting was performed using GraphPad Prism. In Table 5, and throughout the specification, residues provided in capital letters are L-amino acids, while lower case letters indicate D-amino acids. “Ac” indicates an acetyl capping group, “NH2” indicates an amide capping group, “Ac-bAla” is an acetylated beta-alanine, “GSH” indicates reduced glutathione, “GS” indicates oxidized glutathione, “PEG” refers to polyethylene glycol, “PEG2” and “PEGS” refer to polyethylene glycol moieties of 2 kDa and 5 kDa, respectively, and “Mpa” refers to mercaptopropionic acid.
The day after, these cells were transfected with human CaSR receptor using lipofectamine 2000 transfection reagent 24 hrs post transfection, cells were seeded in 384 well plates at 8,000 cells/well. […] In some cases, EC50 values were determined by measuring inositol monophosphate production in the HEK293 cells, stably transfected with the human calcium-sensing receptor (see Table 1).
Cells were incubated with compounds at various concentrations (1 mM or 300 μM as the highest and further ½ log serial dilutions) at 37° C. for 1.5 hrs before reaction termination. […] In brief, incubation with the compound was terminated by sequentially adding D2 labeled-IP1 and cryptate-labeled anti-IP1 in lysis buffer and further incubating at room temperature for 60 minutes. […] Non-transfected 293 cells were used as negative control.
IP1 concentrations were calculated from standard curves (generated with Graph Pad Prism ver. 4) using known concentrations of IP1 standards.

Data set [2] deals with rat peritoneal mast cells. In words: In vitro histamine induction in rat peritoneal mast cells. Format: cell-based. The procedure:
To further evaluate the relationship between compound structure and histamine release, a series of compounds was prepared and assessed for their ability to trigger induction of histamine in an in vitro assay using rat peritoneal mast cells. In this assay, compounds are incubated at 10 μM for 15 minutes at 37° C. with cells isolated from peritoneal lavage of SD rats. Following incubation, cell medium is collected and histamine is determined.
Accordingly, and as can be appreciated in view of the PTH data and the histamine data described hereinabove, in one embodiment, a compound that has activity to decrease PTH level in a subject in the absence of a histamine response is contemplated. In certain embodiments, absence of a histamine response intends a dose of the compound that produces a less than 10-fold, more preferably 8-fold, still more preferably 5-fold, and even still more preferably 3-fold, increase in histamine, measured in vitro in an assay as described herein, where the fold change is determined based on histamine levels before incubation with the compound and after 15 minutes incubation with compound. In a specific embodiment, the histamine response is determined in an in vitro assay using rat peritoneal mast cells isolated from peritoneal lavage of normal Sprague Dawley rats, and where the fold change is determined based on histamine levels before incubation with the compound and after 15 minutes incubation with compound. In the studies conducted herein, the in vitro evaluation of histamine release was performed using isolated rat peritoneal mast cells isolated by peritoneal lavage using cold HBSS+25 mM HEPES pH 7.4 containing heparin (5 u/mL). Cells were washed twice in stimulation buffer (HBSS+25 mM HEPES pH 7.4) and incubated with 10 μM of compound in stimulation buffer (HBSS+25 mM HEPES pH 7.4) for 15 minutes in a 96-well plate ([…]) at 37° C. Cell supernatant was analyzed for histamine using histamine EIA kit (Cayman #589651).
For in vitro evaluation of histamine release, isolated rat peritoneal mast cells were isolated by performing peritoneal lavage using cold HBSS+25 mM HEPES pH 7.4 containing heparin (5 u/mL). Cells were washed twice in stimulation buffer (HBSS+25 mM HEPES pH 7.4) and incubated with 10 μM of compound in stimulation buffer (HBSS+25 mM HEPES pH 7.4) for 15 minutes in a 96-well plate (10^6/well) at 37° C. Cell supernatant was analyzed for histamine using histamine EIA kit (Cayman #589651).

The test system of data set [3] is plasma PTH. Briefly: In vivo PTH lowering after IV bolus in isoflurane-anesthetized normal Sprague Dawley rats. Also on record: species or system rat. The following applies: Table 7; normal rats, AUC 1-4 h. Here is the method:
The peptides were administered intravenously at a dose of 0.5 mg/kg into isoflurane-anesthetized normal Sprague Dawley rats. A control group of rats was treated with saline. Blood was drawn prior to dosing and every hour for 4 hours. Rats were maintained under isoflurane anesthesia for the entire study. […] Percent PTH reduction was calculated according to the following formula: AUCcmpd treated/AUCsaline control*100.
An intravenous (IV) bolus of saline was used as a control. Plasma (K2EDTA) PTH levels were assessed prior to dosing and 1, 2, 3 and 4 hours after dosing. Rats were maintained under isoflurane anesthesia for the entire study. […] In FIG. 2B, PTH is shown as percent of the baseline pre-dose value.
A series of compounds having an L-amino acid residue substituted for a D-amino acid residue were prepared. The compounds were administered as an IV bolus to normal Sprague Dawley rats at a dose of 0.5 mg/kg. An intravenous (IV) bolus of saline was used as a control. […] Rats were maintained under isoflurane anesthesia for the entire study.

Each structure is given as a SMILES string. Like-named read-outs stand apart in the source and are kept apart here. Square brackets hold non-standard residues; d marks the D form. Peptide text beside a SMILES is read from it. dNle = CCCC[C@@H](N)C(=O)O; dNva = CCC[C@@H](N)C(=O)O

One may read the EC50 as the concentration at which the effect is half-maximal. In the case of `CC(=O)N[C@H](CS)C(=O)N[C@H](CCCNC(=N)N)C(=O)N[C@H](CCCNC(=N)N)C(=O)N[C@H](CCCNC(=N)N)C(=O)N[C@H](CCCNC(=N)N)C(=O)N[C@H](CCCNC(=N)N)C(=O)N[C@H](CCCNC(=N)N)C(=O)N[C@H](CCCNC(=N)N)C(N)=O` [SEQ ID NO: 7, Ac-crrrrrrr-NH2] (Ac-[dC][dR][dR][dR][dR][dR][dR][dR]-NH2), the EC50 in data set [1] came to 0.6 µM.
For the compound `CC(=O)N[C@@H](CS)C(=O)N[C@H](C)C(=O)N[C@@H](CCCNC(=N)N)C(=O)N[C@H](CCCNC(=N)N)C(=O)N[C@@H](CCCNC(=N)N)C(=O)N[C@H](C)C(=O)N[C@@H](CCCNC(=N)N)C(N)=O` [SEQ ID NO: 44, Ac-CaRrRaR-NH2], the “fold decrease in potency relative to Ac-carrrar-NH2 (SEQ ID NO:26)” value in data set [1] (human CaSR, HEK293) is given as less than 4 fold.
Consider `CC(=O)N[C@@H](CS)C(=O)N[C@@H](Cc1ccc(O)cc1)C(=O)NCC(=O)N[C@@H](CCCNC(=N)N)C(=O)N[C@@H](CCCCN)C(=O)N[C@@H](CCCCN)C(=O)N[C@@H](CCCNC(=N)N)C(=O)N[C@@H](CCCNC(=N)N)C(=O)N[C@@H](CCC(N)=O)C(=O)N[C@@H](CCCNC(=N)N)C(=O)N[C@@H](CCCNC(=N)N)C(=O)N[C@@H](CCCNC(=N)N)C(N)=O` [SEQ ID NO: 47], for which, in data set [1], the EC50 came to 4.5 µM.
The same measure, in the same setting: as for `CC(=O)N[C@@H](Cc1ccc(O)cc1)C(=O)NCC(=O)N[C@@H](CCCNC(=N)N)C(=O)N[C@@H](CCCCN)C(=O)N[C@@H](CCCCN)C(=O)N[C@@H](CCCNC(=N)N)C(=O)N[C@@H](CCCNC(=N)N)C(=O)N[C@@H](CCC(N)=O)C(=O)N[C@@H](CCCNC(=N)N)C(=O)N[C@@H](CCCNC(=N)N)C(=O)N[C@@H](CCCNC(=N)N)C(N)=O` [SEQ ID NO: 48], the figure is 16 µM.
For the compound `CCCC[C@@H](NC(=O)[C@@H](CCCNC(=N)N)NC(=O)[C@@H](CCCNC(=N)N)NC(=O)[C@@H](CCCNC(=N)N)NC(=O)[C@@H](CCCC)NC(=O)[C@@H](CS)NC(C)=O)C(=O)N[C@H](CCCNC(=N)N)C(N)=O` [SEQ ID NO: 130, Ac-c-dNle-rrr-dNle-r-NH2] (Ac-[dC][dNle][dR][dR][dR][dNle][dR]-NH2), the “Histamine in vitro Fold change of non-treated at 10 uM” value in data set [2] stood at 9.2 fold. The “0.5 mg/kg IV bolus % PTH AUC of saline control” value (from here on “0.5 mg/kg IV bolus % PTH AUC”) in data set [3] came out at 54%.
Take `CCC[C@@H](NC(=O)[C@@H](CCCNC(=N)N)NC(=O)[C@@H](CCCNC(=N)N)NC(=O)[C@@H](CCCNC(=N)N)NC(=O)[C@@H](C)NC(=O)[C@@H](CS)NC(C)=O)C(=O)N[C@H](CCCNC(=N)N)C(N)=O` [SEQ ID NO: 131, Ac-carrr-dNva-r-NH2] (Ac-[dC][dA][dR][dR][dR][dNva][dR]-NH2): in data set [2], the “Histamine in vitro Fold change of non-treated at 10 uM” value is on record as 1.8 fold. Besides, in data set [3], the “0.5 mg/kg IV bolus % PTH AUC” value came to 54%.
Take `CCC[C@@H](NC(=O)[C@@H](CCCNC(=N)N)NC(=O)[C@@H](CCCNC(=N)N)NC(=O)[C@@H](CCCNC(=N)N)NC(=O)[C@@H](CCC)NC(=O)[C@@H](CS)NC(C)=O)C(=O)N[C@H](CCCNC(=N)N)C(N)=O` [SEQ ID NO: 132, Ac-c-dNva-rrr-dNva-r-NH2] (Ac-[dC][dNva][dR][dR][dR][dNva][dR]-NH2): the “Histamine in vitro Fold change of non-treated at 10 uM” value in data set [2] (Table 9, 10 μM, 15 minutes, 37° C.) came to 4.1 fold. For the same compound, the “0.5 mg/kg IV bolus % PTH AUC” value in data set [3] is given as 27%.
Turning to `CCCC[C@@H](NC(=O)[C@@H](CCCNC(=N)N)NC(=O)[C@@H](C)NC(=O)[C@@H](CCCNC(=N)N)NC(=O)[C@@H](CCCNC(=N)N)NC(=O)[C@@H](CS)NC(C)=O)C(=O)N[C@H](CCCNC(=N)N)C(N)=O` [SEQ ID NO: 133, Ac-crrar-dNle-r-NH2] (Ac-[dC][dR][dR][dA][dR][dNle][dR]-NH2), the “Histamine in vitro Fold change of non-treated at 10 uM” value in data set [2] is on record as 4.3 fold. Besides, the “0.5 mg/kg IV bolus % PTH AUC” value in data set [3] is recorded as 26%.
As for `CCCC[C@@H](NC(=O)[C@@H](CS)NC(C)=O)C(=O)N[C@H](CCCNC(=N)N)C(=O)N[C@H](CCCNC(=N)N)C(=O)N[C@H](CCCNC(=N)N)C(=O)N[C@H](C)C(=O)N[C@H](CCCNC(=N)N)C(N)=O` [SEQ ID NO: 134, Ac-c-dNle-rrrar-NH2] (Ac-[dC][dNle][dR][dR][dR][dA][dR]-NH2), in data set [2], the “Histamine in vitro Fold change of non-treated at 10 uM” value came to 2.2 fold. For the same compound, in data set [3], the “0.5 mg/kg IV bolus % PTH AUC” value was 10%.
For `CCC[C@@H](NC(=O)[C@@H](CCCNC(=N)N)NC(=O)[C@@H](C)NC(=O)[C@@H](CCCNC(=N)N)NC(=O)[C@@H](CCCNC(=N)N)NC(=O)[C@@H](CS)NC(C)=O)C(=O)N[C@H](CCCNC(=N)N)C(N)=O` [SEQ ID NO: 135, Ac-crrar-dNva-r-NH2] (Ac-[dC][dR][dR][dA][dR][dNva][dR]-NH2), in that order: 1.1 fold and 8%.
For the compound `CCC[C@@H](NC(=O)[C@@H](CS)NC(C)=O)C(=O)N[C@H](CCCNC(=N)N)C(=O)N[C@H](CCCNC(=N)N)C(=O)N[C@H](CCCNC(=N)N)C(=O)N[C@H](C)C(=O)N[C@H](CCCNC(=N)N)C(N)=O` [SEQ ID NO: 136, Ac-c-dNva-rrrar-NH2] (Ac-[dC][dNva][dR][dR][dR][dA][dR]-NH2), in data set [2], the “Histamine in vitro Fold change of non-treated at 10 uM” value was 2.1 fold. In addition, in data set [3], the “0.5 mg/kg IV bolus % PTH AUC” value turned out to be 7%.
